Data: patent publication US12419874B2, “GLP-1R agonist compound and use thereof” (Chongqing Pharmaceutical Research Institute Co., Ltd., priority 2024, dated 2025)

Columns and labels:
GLP-1R [1] = target: T1, GLP-1R (Homo sapiens, UniProt P43220); assay: GLP-1R agonistic activity by One-Lite luciferase assay in HEK293-GLP-1R-luc cells (Example 59); type: cell-based; conditions: 6 h incubation, read-out: cAMP EC50
Method in brief: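 HEK293 cells stably expressing GLP-1R with a cAMP-responsive luciferase reporter, 30000 cells/well, exposed to compound for 6 h at 37 °C. Chemiluminescence read after 3 min with One-Lite substrate at room temperature; % activity normalised to positive and vehicle controls, EC50 from a four-parameter dose-response fit.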

[2] = test system: GLP-1R humanized C57BL/6N mice fed with high-fat diets; assay: In vivo efficacy on body weight and food intake in high-fat diet hGLP-1R mice; conditions: for Cumulative Food Intake on Day 27 / Change Rate of Body Weight on Day 27: gavage once daily; for Change Rate of Body Weight on Day 27: corrected by Vehicle
Method: The effects of long-term administration of the compounds of the present disclosure on the weight and food intake of GLP-1R humanized C57BL/6N mice fed with high-fat diets were evaluated.
• five-week-old male C57BL/6N hGLP-1R mice; • 60% high-fat diet (HFD); electronic balance. 3. Experimental Method • (1) C57BL/6N_hGLP-1R mice were fed with 60% high-fat diets until the end of the experiment. • (2) At the 10th week of HFD feeding, the model mice were randomly divided into groups according to their body weight, with 6 to 7 mice in each group. Subsequently, the single-caged mice were adaptively fed for 2 weeks. The first group was Vehicle group (Vehicle: 10% PEG 400+10% propylene glycol+80% glycine-NaOH buffer), and administered with the Vehicle; the remaining groups were drug treatment groups; the duration of administration was 27 days. • (3) The day of drug administration was defined as Day 0. At each administration, the animals were weighed and the data were recorded, and the mice were treated depending upon their body weight. • (4) The food intake of the mice in each group was measured once a day from Day 0 of the experiment. Specifically, the diets were changed after each weighing and administration, and the addition amounts and residual amounts thereof were recorded. 4. Experimental Data Processing and Statistical Analysis
The rates of change in the body weight of mice after administration were summarized and statistically analyzed.
The rate of change in the body weight corrected by Vehicle was calculated: (((BWt/BW0)−1)−(BWt-vec-avg))*100%;
BWt represented the body weight of mouse in drug treatment group on Day t; BW0 represented the body weight of mouse in drug treatment group on Day 0; BWt-vec-avg represented the average body weight of mice in Vehicle group on Day t for drug treatment groups.
The cumulative food intake of mice after drug administration was summarized and statistically analyzed.
Cumulative food intake was calculated: addition amounts (g)—residual amounts (g).
The cumulative food intake was the sum of daily food intake of each animal during the period of administration.

[3] = In vivo pharmacokinetics in Macaca fascicularis, intravenous
Method: A clear solution of “example compound 67 in WO2018056453” in 10% PEG/90% 100 mM glycine-NaOH and a clear solution of “Compound 1” in 10% PEG/90% 100 mM glycine-NaOH were prepared. The above solutions were injected into subcutaneous veins of the fore limbs of male Macaca fascicularis (n=2) at a dose of 0.12 mg/kg, respectively. At different time points (0.083, 0.25, 0.5, 1.0, 2.0, 4.0, 8.0, 24.0, and 36 h) after administration, blood samples were collected from veins into anticoagulant tubes containing EDTA-K2, and centrifuged to separate plasma.
The drug concentrations in the plasma were determined by the LC-MS/MS method, and the pharmacokinetic software (e.g., winNonlin Version 6.3) was used to calculate the related pharmacokinetic parameters as shown in Table 10 by using the log-linear trapezoidal rule of the non-compartmental analysis.

GLP-1R [4] = target: T1, GLP-1R; assay: GLP-1R agonistic activity by cAMP detection kit in HEK293-GLP-1R-luc cells (Example 58); type: cell-based; conditions: 30 min incubation
Method: The agonistic activities of the compounds of the present disclosure on GLP-1R were evaluated by detecting the generation of cAMP.
• (1) Cell line: HEK293-GLP-1R-luc Stable Cell Line (Cobioer, CBP71117); • (2) Culture medium: DMEM+10% FBS (Gibco); • (3) Kit: cAMP detection kit (PerkinElmer). 2. Experimental Procedures • (1) HEK293-GLP1R cells were inoculated in a 384-well plate at a density of 2000 cells per well; • (2) 4× working solution of each compound was formulated; • (3) 5 μL of 4× working solution of each compound was added to corresponding well and incubated at 37° C. for 30 min; • (4) 10 μL of Eu-cAMP tracer diluted with Lysis Buffer (1/50) was added to each well; • (5) 10 μL of Ulight-anti-cAMP diluted with Lysis Buffer (1/150) was added to each well; • (6) The plate was incubated at room temperature for 1 h; • (7) The plate was read by a multimode microplate reader (excitation wavelength: 320 nm; emission wavelength: 665 nm and 620 nm). 3. Data Analysis • (1) % Activity was calculated by the following formula: % Activity=100−(Signalcmpd−SignalAve-PC)/(SignalAve-VC−SignalAve-PC)×100 • (2) The dose-response curve was plotted to calculate EC50: Y=Bottom+(Top−Bottom)/(1+10^(Log EC50−X)*HillSlope)) • X: log of agonist concentration; Y: Activity. 4. Experimental Results

[5] = In vivo pharmacokinetics in rats, oral; design: species or system SD rats; conditions: for AUC(0-t) / Cmax / half-life: rat, plasma, SD rats, PO
Method: The compounds of the present disclosure were formulated with […]+90% 100 mM glycine-64 mM NaOH, and orally administered to fasted SD rats at a dose of 1 mg/kg or 5 mg/kg, respectively. At different time points (0.25, 0.5, 1.0, 2.0, 4.0, 5.0, 6.0, 7.0, 8.0, and 24 h) after administration, about 50 μL of blood samples were collected from veins into anticoagulant tubes containing EDTA-K2, and centrifuged to separate plasma. The plasma concentrations of the compounds were determined by LC-MS/MS. WinNonlin was used to calculate the pharmacokinetic parameters by using the non-compartmental analysis, and the experimental results were listed in Table 9.

[6] = Macaca fascicularis, versus example compound 67 in WO2018056453, in words
[7] = cynomolgus monkey, plasma, male Macaca fascicularis, 0.12 mg/kg
[8] = rats, oral, versus example compound 67 in WO2018056453, in words

T1 sequence (P43220 24-463): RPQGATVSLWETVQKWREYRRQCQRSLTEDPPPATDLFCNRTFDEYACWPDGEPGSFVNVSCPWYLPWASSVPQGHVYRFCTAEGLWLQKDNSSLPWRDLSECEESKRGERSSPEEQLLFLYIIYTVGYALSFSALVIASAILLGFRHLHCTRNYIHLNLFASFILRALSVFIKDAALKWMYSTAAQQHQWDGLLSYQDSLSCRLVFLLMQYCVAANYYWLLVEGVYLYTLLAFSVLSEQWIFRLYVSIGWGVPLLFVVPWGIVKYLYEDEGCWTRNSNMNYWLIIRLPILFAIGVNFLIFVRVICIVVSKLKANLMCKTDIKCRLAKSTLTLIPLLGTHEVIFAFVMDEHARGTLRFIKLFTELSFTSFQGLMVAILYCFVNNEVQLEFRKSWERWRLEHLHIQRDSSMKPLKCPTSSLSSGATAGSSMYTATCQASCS

- EC50 (GLP-1R [1]): ≤ 0.02 µM
- clearance (Cl) compared with the control compound [3, 6]: lower
- exposure (AUC) compared with the control compound [3, 6]: higher
- half-life (T1/2) compared with the control compound [3, 6]: longer
- AUC(0-t) [3, 7]: 0.754 µg·h/mL
- clearance [3, 7]: 0.158 L/h/kg
- half-life [3, 7]: 6.08 h
- EC50 (GLP-1R [4]): ≤ 0.0001 µM
- AUC(0-t) ([5]; 1 mg/kg): 2.3 µg·h/mL
- Cmax ([5]; 1 mg/kg): 0.213 µg/mL
- half-life ([5]; 1 mg/kg): 10 h
- AUC(0-t) ([5]; 5 mg/kg): 11.8 µg·h/mL
- Cmax ([5]; 5 mg/kg): 1.08 µg/mL
- half-life ([5]; 5 mg/kg): 12.9 h
- maximum plasma concentration Cmax compared with the control compound [5, 8]: higher
- oral exposure AUC compared with the control compound [5, 8]: higher
Structure (SMILES): Cc1cc(-n2nc3c(c2-n2ccn(-c4ccc5c(cnn5C)c4F)c2=O)[C@H](C)N(C(=O)c2cc4cc([C@H]5CCOC(C)(C)C5)ccc4n2[C@@]2(c4noc(=O)[nH]4)C[C@@H]2C)CC32CC2)cc(C)c1F [Compound 1]
- Cumulative Food Intake on Day 27 ([2]; 0.3 mpk): 73.91 ± 6.71 g
- Change Rate of Body Weight on Day 27 ([2]; 0.3 mpk): −15.04 ± 1.90%
- Cumulative Food Intake on Day 27 ([2]; 1.5 mpk): 70.01 ± 5.88 g
- Change Rate of Body Weight on Day 27 ([2]; 1.5 mpk): −18.46 ± 1.98%
- Cumulative Food Intake on Day 27 ([2]; 3.0 mpk): 62.75 ± 6.97 g
- Change Rate of Body Weight on Day 27 ([2]; 3.0 mpk): −23.78 ± 1.61%
- reduction of the body weight and inhibition of the food intake ([2]; long-term administration, 0.3 to 3 mpk, in words): excellent effects
